# Laboratory results taken from ChEMBL document CHEMBL3507680, “University of Dundee, Gates Library screen for HepG2 cell viability”.
# Assay: Human HepG2 cell viability assay in 384 well format
# Type: toxicity, cell-based
# Design: dose 125 nL, time 70.5 hour; concentration not given beside the values
# Settings: HepG2 cells, read-out: Inhibition
row,SMILES,cytotoxicity at 70.5 h [%]
1,Cc1cnn(CC2CCCCN2CCn2cncn2)c1 (stereo not drawn),1.52
2,Cc1nc2c(c(NC3CC3)n1)CCN(C(=O)CCO)CC2,-4.49
3,COc1cc(OC)cc(C(=O)NCCCNc2ncccn2)c1,-7.17
4,CN(c1ccc(C(=O)NCCCN2CCCC2)c(Cl)c1)S(C)(=O)=O,17.4
5,COc1cc2nc(C)n(CC(=O)NCC(C)C)c(=O)c2cc1OC,-15.9
6,CC(C)NC(=O)c1ccc2nnc(C3CCN(S(C)(=O)=O)C3)n2c1 (stereo not drawn),-0.738
7,CN(C)C(=O)CN1CCC2(CC1)C[C@@H](O)[C@H](c1ccccc1)NC2=O,-8.01
8,Cn1ccc(C(=O)N2CCC3(CCN3c3ncccn3)C2)n1 (stereo not drawn),-1.24
9,CCC(=O)N1CCCN(c2cncc(-n3nc(C)cc3C)n2)CC1,-4.7
10,CC1CN(Cc2ccccc2)CCCN1CCNS(C)(=O)=O (stereo not drawn),-0.345
11,CC(C)c1noc(CCCC(=O)N2CCC(Cc3cccnc3)CC2)n1,-20.7
12,COCC(=O)NC[C@H]1CC[C@H](c2nnc(-c3cccnc3)o2)CC1,-7.6
13,Cc1cccc(CN2CCN3C(=O)NC[C@H]3C2)n1,-2.26
14,O=C(CCc1ccc(F)cc1)NCc1ccnc(NC2CC2)c1,-2.2
15,Cc1ccnc(C(NC(=O)c2oc(C)nc2C)C2CC2)n1 (stereo not drawn),-3.47
16,OC1(CN2CCOC(Cn3cncn3)C2)CCCCC1 (stereo not drawn),2.37
17,CCN(CCO)C[C@@H]1CN(c2cc(C(F)(F)F)cc(C)n2)C[C@@H]1CO,-8.43
18,O=C1CCC(C(=O)N(Cc2ccsc2)CC2CCCO2)=NN1 (stereo not drawn),-0.382
19,Cc1nc(N2CCOCC2)nc2c1CCN(c1nccs1)CC2,-5.03
20,CC(=O)Nc1cccc(C(C)NCC2CCS(=O)(=O)CC2)c1 (stereo not drawn),-3.86
21,Cc1cc(N2CCC(N(C)C(=O)c3cccs3)CC2)nc(C)n1,-18.8
22,Cc1nn(C)c(Cl)c1S(=O)(=O)N(C)c1ccc(Cl)cn1,0.786
23,COc1ccc(S(=O)(=O)NC(=O)c2ccccc2F)cc1OC,1.07

row,SMILES,cytotoxicity at 70.5 h [%]
1,CCOC(=O)CNC(=O)NCc1cccn1Cc1ccccc1F,-2.5
2,CC1(C(=O)N2CCOCC2)CN(CC2CCOCC2)CCO1 (stereo not drawn),-0.606
3,CC(=O)Nc1nc(C(=O)NCCOc2cccc(C)c2)cs1,-8.98
4,COc1ccccc1NC(=O)N1CCCC1c1ccco1 (stereo not drawn),-0.874
5,CN(CC(F)(F)F)C(=O)CNC(=O)Cc1ccc(O)cc1Cl,-9.7
6,CCc1cc(C)c(C(=O)N2CCCC(c3nnn[nH]3)C2)o1 (stereo not drawn),-0.273
7,CC(C)c1nnc(N2C[C@@H](CN(C)CCO)[C@@H](CO)C2)s1,12.7
8,COc1cc(F)c(NCc2nc3ccccc3n2C)cc1OC,-15.9
9,Cc1nc(N2CCOCC2)nc2c1CCN(Cc1cccnc1)CC2,-17.8
10,COc1cccc(CNC(=O)N2CCN3CCNC(=O)C3C2)c1 (stereo not drawn),-10.4
11,Cc1ccc(CNCC2CCN(CCO)CC2)cc1,39.2
12,CC1CN(C(=O)NCc2ccn(C)c2)CCN1CC(F)(F)F (stereo not drawn),32.3
13,Cc1cc(N2CCC(c3n[nH]c4nccnc34)CC2)ncn1,19
14,Cn1nccc1-c1nnn2c1COCC(CNCC1CC1)C2 (stereo not drawn),-2.84
15,Cc1cc2c(N)nc(=O)n(CC(=O)Nc3cccc(Cl)c3)c2s1,-13.3
16,Cn1nc(C2CCCN(Cc3cc(F)cc(F)c3)C2)c2nccnc21 (stereo not drawn),-1.82
17,CN(C)c1ncc(-c2cccc(F)c2)c(C2CNCCO2)n1 (stereo not drawn),-5.48
18,CN1CCc2ccc(NCc3cccs3)cc2C1=O,-15.5
19,CC(C)CC(=O)N1CCN(Cc2cc(-c3ccncc3)nn2C)CC1,-3.33
20,CCCc1cc(C(=O)N2Cc3ccccc3C2)[nH]n1,6.06
21,CN1CCN(Cc2ccccc2CNC(=O)c2ccc(Br)cc2)CC1,-7.15
22,CN(Cc1ccc(Cl)s1)C(=O)CN(C)C1CCc2ccccc21 (stereo not drawn),-13.1
23,CS(=O)(=O)N1CC[C@H]2OCC[C@@]2(C(=O)NCc2ccccn2)C1,-2.32

row,SMILES,cytotoxicity at 70.5 h [%]
1,Cn1ccc(C(=O)N2CCOC3(COCCN(CC4CC4)C3)C2)n1 (stereo not drawn),-3.98
2,O=C(c1ccncc1F)N1CCOC(c2cccc(O)c2)C1 (stereo not drawn),2.22
3,CSc1cccc(CN(C)C(=O)Cn2ncc(N(C)C)cc2=O)c1,-3.4
4,CN(C)C(=O)COCc1ncn2c1CN(c1ncc(F)cn1)CCC2,9.71
5,CCOC(=O)[C@H]1[C@@H](O)C(=O)N(C)C12CCN(C(=O)OC)CC2,7.43
6,COc1ccc(C)cc1-c1csc(N)c1C#N,13.2
7,O=C(NCCCn1ccnn1)C1CCCN(C2CCCC2)C1 (stereo not drawn),-1.79
8,O=C(c1ccc[nH]1)N1CCCn2c(nnc2Cn2cccn2)C1,-9.08
9,CC(C)(C)c1nnc(CNc2cc(F)ccc2OCC2CCCO2)o1 (stereo not drawn),32.8
10,CC(Cn1cncn1)NCCN1CCc2ccccc2C1 (stereo not drawn),-6.48
11,Cc1nc(C)n(Cc2cccc(NC(=O)N(C)CCC(C)O)c2)n1 (stereo not drawn),-7.61
12,CCOc1ncccc1CNC(=O)c1c(C)oc(C)c1C,-9.43
13,CCn1ccnc1CN1CCN(c2nc(C)cc(OC)n2)CC1,-9.98
14,Cc1ccc(CN(C)C(=O)CN2CCCCC2Cn2cncn2)o1 (stereo not drawn),17.9
15,CN(CC1Cc2ccccc2CN1C)c1nc(N)nc2c1CCNCC2 (stereo not drawn),-9.32
16,Cc1noc(C)c1CN1CCC2(CC1)CC(Oc1cccnc1)C2,-9.29
17,COCC(=O)N1CCc2ccc(=O)n(CC3CC3)c2CC1,-2.86
18,CCCn1ncc(CN2C[C@@H]3CCCN3C[C@H]2Cc2ccccc2)c1C,23.6
19,CC1CCCN(C(=O)NCC(F)F)C1 (stereo not drawn),-4.81
20,O=C(c1cccnc1)N1CCN2C[C@H](OCc3ccccc3)C[C@H]2C1,-5.95
21,Cc1cc(CN2CCCC2Cn2cncn2)no1 (stereo not drawn),26.7
22,Cc1ccccc1CN1CCN(Cc2nccn2C)CC1,-8.12
23,CC(C)Nc1nc2c(cc1C(=O)NCC1CC1)CCN(S(C)(=O)=O)CC2,-6.91

row,SMILES,cytotoxicity at 70.5 h [%]
1,O=C(NCC(O)COc1ccccc1)C1(c2ccc(F)cc2)CC1 (stereo not drawn),-10.3
2,c1cnnc(N2CCCC2CNCc2nc(-c3ccco3)no2)c1 (stereo not drawn),-14.5
3,CN(CCCN1CCCC1)[C@@H]1c2ccccc2C2(CCNCC2)[C@H]1O,14.4
4,O=C(NCc1cncc2c1CCN(CC1CCOC1)C2)c1ccno1 (stereo not drawn),-6.93
5,CN(Cc1ccco1)C[C@H]1OC[C@@H]2CCN(Cc3nccs3)C[C@@H]21,-10.1
6,Fc1ccc(C2CCCN2Cc2nc(Cc3ccccc3F)no2)cc1 (stereo not drawn),0.991
7,Cc1ccc(C(=O)N2CC[C@@]3(O)CCCC[C@H]3C2)cc1,7.79
8,Cc1ccc(C(=O)NCC2COCCO2)c(=O)[nH]1 (stereo not drawn),-17
9,COCCN(Cc1cnn(C)c1)C(=O)C1CCCN(C2CCOCC2)C1 (stereo not drawn),-12.6
10,c1ccc(CO[C@H]2C[C@@H]3CN(Cc4cncnc4)C[C@@H]3C2)cc1,-5.58
11,Cc1nc(CN2C(=O)C[C@H]3[C@H]2CCN3C2CCOCC2)cs1,-2.79
12,O=C(c1cc2ccccc2[nH]c1=O)N1CCC2(CCCNC2)C1 (stereo not drawn),-4.47
13,Cc1n[nH]c(C)c1CCCN(C)Cc1c[nH]nc1-c1ccc(F)cc1,-4.19
14,CN(C(=O)COCc1ccccc1)C1CCN(CC2CCOC2)CC1 (stereo not drawn),-7.68
15,O=C(O)c1nc(SCc2ccc(F)cc2)ncc1Br,-7.86
16,Cc1cccc2[nH]c(C3CCCN(Cc4ccccc4C(=O)O)C3)nc12 (stereo not drawn),8.18
17,COc1ccc(CCNC(=O)CN2CCCC2c2noc(C)n2)cc1 (stereo not drawn),-1.93
18,COCCN1CCN(c2ncnc3nc(C)cc(C)c23)CC1,-7.61
19,O=C(CCNc1ncccn1)N1CCCC(n2cccn2)C1 (stereo not drawn),-5.02
20,CCC(CN1CCOCC1)NC(=O)Cc1c(C)[nH]c2cc(C)cc(C)c12 (stereo not drawn),0.203
21,CS(=O)(=O)N[C@H]1COC[C@@H]2CN(Cc3ccco3)C[C@@H]21,-5.39
22,CCOc1ncccc1NC(=O)N1CCN(CC(=O)NC)CC1,-8.56
23,CC(C)NC(=O)c1ccc2c(c1)nc1n2CCN(C(C)C)C1,-13.4

row,SMILES,cytotoxicity at 70.5 h [%]
1,Cc1ccccc1CCNC(=O)N1CCCC(c2nncn2C)C1 (stereo not drawn),-9.14
2,O=C(Cn1cc(Cl)cn1)Nc1ccc2c(c1)OCO2,-2
3,CCCS(=O)(=O)N1CCC2(CCN(Cc3cccc(F)c3)C2=O)C1 (stereo not drawn),36.3
4,Cc1cc2nc(C(C)C)cc(N[C@H](C(N)=O)C(C)C)n2n1,32.4
5,O=C(NC1CC1)N1CCc2ccc(=O)n(Cc3cccnc3)c2CC1,6.33
6,COc1ccc(-c2cc3nc([C@H](C)NC(=O)C4CC4)nn3cn2)cc1,-0.493
7,CN(CCCc1cnn(C)c1)C(=O)Nc1cccc(C#N)c1,-6.3
8,c1ccc2sc(N3CCCC(Cn4cncn4)C3)nc2c1 (stereo not drawn),-6.17
9,O=C1N(CCC2CCCCC2)CCCC1(O)CNCCc1ccccc1 (stereo not drawn),0.277
10,Cc1cc(C(F)F)nn1C(C)C(=O)NCc1nccn1C (stereo not drawn),-0.123
11,CN(CC(=O)NC(c1ccc(F)cc1)C(F)(F)F)S(C)(=O)=O (stereo not drawn),-0.794
12,Fc1ccc(-c2ccc(CNC3CCc4ncnn4C3)o2)cc1 (stereo not drawn),-9.49
13,CC(C)(C)CC(=O)N1CC[C@@H]2[C@H](CC1)N(S(C)(=O)=O)CCS2(=O)=O,-5.98
14,c1cnc(N2CCOCC3(CCCN(Cc4cc[nH]n4)C3)C2)nc1 (stereo not drawn),-3
15,Nc1nc2nc(C3CCN(C(=O)c4cscn4)C3)ccc2s1 (stereo not drawn),-5.85
16,O=C1C[C@H]2CC[C@@H](CN1)N2C(=O)CCc1ccc2c(c1)OCO2,-12.8
17,CC(C)(C)c1nccc(N2CCCCC2CCNS(C)(=O)=O)n1 (stereo not drawn),2.95
18,COCC1c2nnn(CC3CC3)c2CCN1C(=O)c1sccc1C (stereo not drawn),-11.5
19,Cn1ncc2c1NC(=O)CC2c1cccs1 (stereo not drawn),-4.29
20,O=C([C@H]1C[C@H]2OCC[C@H]2N(Cc2cccnc2)C1)N1CCCCO1,-7.65
21,Cc1ccc2c(c1)nc1n2[C@@H](CNC(=O)c2cccnc2)COC1,-4.19
